Measurements published in PubChem BioAssay AID1918931 (Molecular Pharmacology Branch, DTP, NCI, 2023).

Test system: 138582-337-R-J1-PDC complex spheroid viability
Assay: Anticancer human tumor 138582-337-R-J1-PDC patient-derived Merkel cell tumor cell line growth inhibition
Settings: for IC50: curve of first compound; for viability, T/C: stronger effect = lower value
Outline: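 Multicellular complex spheroids of tumor cells with human endothelial cells (HUVEC) and mesenchymal stem cells; the LSD1 inhibitor iadademstat was combined with standard-of-care or investigational agents. Top concentration at or near clinical Cmax, half-log dilutions; final DMSO ≤0.25%.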
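Further: spheroids exposed to agents for 7 days.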
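Wherever viability, T/C is given: 100% = DMSO vehicle control viability.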

CC[C@@]1(O)C(=O)OCc2c1cc1n(c2=O)Cc2cc3c(CN(C)C)c(O)ccc3nc2-1 + NC1CCC(NC2CC2c2ccccc2)CC1
IC50 (second compound 0.1 µM): > 100 nM
IC50 (second compound 0.316 µM): > 100 nM
IC50 (second compound 1 µM): > 100 nM
IC50 (second compound 3.16 µM): > 100 nM
IC50 (second compound 10 µM): > 100 nM
viability, T/C (second compound 0.1 µM, first compound 0.000316 µM): 91%
viability, T/C (second compound 0.1 µM, first compound 0.001 µM): 99.7%
viability, T/C (second compound 0.1 µM, first compound 0.00316 µM): 105%
viability, T/C (second compound 0.1 µM, first compound 0.01 µM): 101%
viability, T/C (second compound 0.1 µM, first compound 0.0316 µM): 98.9%
viability, T/C (second compound 0.1 µM, first compound 0.1 µM): 114%
viability, T/C (second compound 0.316 µM, first compound 0.000316 µM): 101%
viability, T/C (second compound 0.316 µM, first compound 0.001 µM): 96.8%
viability, T/C (second compound 0.316 µM, first compound 0.00316 µM): 120%
viability, T/C (second compound 0.316 µM, first compound 0.01 µM): 102%
viability, T/C (second compound 0.316 µM, first compound 0.0316 µM): 95.7%
viability, T/C (second compound 0.316 µM, first compound 0.1 µM): 92.2%
viability, T/C (second compound 1 µM, first compound 0.000316 µM): 92%
viability, T/C (second compound 1 µM, first compound 0.001 µM): 101%
viability, T/C (second compound 1 µM, first compound 0.00316 µM): 115%
viability, T/C (second compound 1 µM, first compound 0.01 µM): 95.6%
viability, T/C (second compound 1 µM, first compound 0.0316 µM): 105%
viability, T/C (second compound 1 µM, first compound 0.1 µM): 107%
viability, T/C (second compound 3.16 µM, first compound 0.000316 µM): 91.2%
viability, T/C (second compound 3.16 µM, first compound 0.001 µM): 96.6%
viability, T/C (second compound 3.16 µM, first compound 0.00316 µM): 104%
viability, T/C (second compound 3.16 µM, first compound 0.01 µM): 106%
viability, T/C (second compound 3.16 µM, first compound 0.0316 µM): 93.4%
viability, T/C (second compound 3.16 µM, first compound 0.1 µM): 105%
viability, T/C (second compound 10 µM, first compound 0.000316 µM): 95.4%
viability, T/C (second compound 10 µM, first compound 0.001 µM): 91.6%
viability, T/C (second compound 10 µM, first compound 0.00316 µM): 86.8%
viability, T/C (second compound 10 µM, first compound 0.01 µM): 87.3%
viability, T/C (second compound 10 µM, first compound 0.0316 µM): 91.2%
viability, T/C (second compound 10 µM, first compound 0.1 µM): 70.7%

CCc1c2c(nc3ccc(O)cc13)-c1cc3c(c(=O)n1C2)COC(=O)[C@]3(O)CC + NC1CCC(NC2CC2c2ccccc2)CC1
IC50 (second compound 0.1 µM): 12 nM
IC50 (second compound 0.316 µM): 11.5 nM
IC50 (second compound 1 µM): 10.1 nM
IC50 (second compound 3.16 µM): 12.1 nM
IC50 (second compound 10 µM): 10.6 nM
viability, T/C (second compound 0.1 µM, first compound 0.000949 µM): 91.7%
viability, T/C (second compound 0.1 µM, first compound 0.003 µM): 87.9%
viability, T/C (second compound 0.1 µM, first compound 0.00949 µM): 57.5%
viability, T/C (second compound 0.1 µM, first compound 0.03 µM): 18.6%
viability, T/C (second compound 0.1 µM, first compound 0.0949 µM): 0.42%
viability, T/C (second compound 0.1 µM, first compound 0.3 µM): 0.49%
viability, T/C (second compound 0.316 µM, first compound 0.000949 µM): 85.1%
viability, T/C (second compound 0.316 µM, first compound 0.003 µM): 84.6%
viability, T/C (second compound 0.316 µM, first compound 0.00949 µM): 55.1%
viability, T/C (second compound 0.316 µM, first compound 0.03 µM): 18.2%
viability, T/C (second compound 0.316 µM, first compound 0.0949 µM): 0.45%
viability, T/C (second compound 0.316 µM, first compound 0.3 µM): 0.5%
viability, T/C (second compound 1 µM, first compound 0.000949 µM): 80.9%
viability, T/C (second compound 1 µM, first compound 0.003 µM): 78.7%
viability, T/C (second compound 1 µM, first compound 0.00949 µM): 51.5%
viability, T/C (second compound 1 µM, first compound 0.03 µM): 14.5%
viability, T/C (second compound 1 µM, first compound 0.0949 µM): 0.38%
viability, T/C (second compound 1 µM, first compound 0.3 µM): 0.35%
viability, T/C (second compound 3.16 µM, first compound 0.000949 µM): 78.3%
viability, T/C (second compound 3.16 µM, first compound 0.003 µM): 75.1%
viability, T/C (second compound 3.16 µM, first compound 0.00949 µM): 58.9%
viability, T/C (second compound 3.16 µM, first compound 0.03 µM): 17.6%
viability, T/C (second compound 3.16 µM, first compound 0.0949 µM): 0.39%
viability, T/C (second compound 3.16 µM, first compound 0.3 µM): 0.54%
viability, T/C (second compound 10 µM, first compound 0.000949 µM): 68.8%
viability, T/C (second compound 10 µM, first compound 0.003 µM): 68.9%
viability, T/C (second compound 10 µM, first compound 0.00949 µM): 54.2%
viability, T/C (second compound 10 µM, first compound 0.03 µM): 9.4%
viability, T/C (second compound 10 µM, first compound 0.0949 µM): 0.34%
viability, T/C (second compound 10 µM, first compound 0.3 µM): 0.52%
